Data on three compounds can be found in patent publication US20090209552A1, “Organic Compounds” (Novartis AG, priority 2006, published 2009).

SMILES strings stand for the structures.

For assay [1], the target named is T1, human CRTh2 (Homo sapiens, UniProt Q9Y5Y4).
T1 sequence (Q9Y5Y4 1-395): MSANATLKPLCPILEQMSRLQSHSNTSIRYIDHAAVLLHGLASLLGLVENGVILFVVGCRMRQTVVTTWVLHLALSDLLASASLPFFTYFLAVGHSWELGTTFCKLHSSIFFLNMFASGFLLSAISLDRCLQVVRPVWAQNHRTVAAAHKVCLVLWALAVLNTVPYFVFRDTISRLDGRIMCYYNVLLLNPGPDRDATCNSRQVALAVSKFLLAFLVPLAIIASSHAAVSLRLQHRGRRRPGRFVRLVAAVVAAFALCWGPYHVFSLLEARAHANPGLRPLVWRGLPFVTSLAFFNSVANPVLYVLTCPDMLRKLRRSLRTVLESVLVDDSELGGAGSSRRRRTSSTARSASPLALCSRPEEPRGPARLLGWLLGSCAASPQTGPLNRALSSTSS
In words: Filtration binding assay ([3H]-PGD2 competition on CHO.K1-CRTh2 membranes). Also noted: expressed in transfected cells; host or cells: CHO.K1 (CHO.K1-CRTh2), membranes. Particulars: [3H]-PGD2 2.5 nM, Cheng-Prussoff. On the procedure: The binding of CRTh2 modulators is determined using membranes prepared from human CRTh2-expressing Chinese Hamster Ovary cells (CHO.K1-CRTh2). To produce cell membranes CHO.K1-CRTh2 cells cultured in roller bottles are harvested using cell dissociation buffer (Invitrogen). The cells are pelleted by centrifugation (167 g, 5 min). The cell pellet is incubated in hypotonic buffer (15 mM Tris-OH, 2 mM MgCl2, 0.3 mM EDTA, 1 mM EGTA, 1× Complete™ tablet) at 4° C. for 30 minutes. At 4° C. cells are homogenized using a Polytron®) (IKA Ultra Turrax T25) for 5 bursts of 1 second. The homogenate is centrifuged (Beckman Optima TM TL Ultracentrifuge, 48000 g, 30 minutes at 4° C.). The supernatant is discarded and the membrane pellet re-suspended in homogenisation buffer (75 mM Tris-OH, 12.5 mM MgCl2, 0.3 mM EDTA, 1 mM EGTA, 250 mM Sucrose, 1× Complete™ tablet. Membrane preparations are aliquoted and stored at […]. The protein content is estimated using Bradford Protein Assay Dye (Bio Rad).
The binding of [^3H]-PGD2 (157 Ci/mmol) to CHO.K1-CRTh2 membranes is determined in the absence (total binding) and presence (non-specific binding) of unlabelled PGD2 (1 μM). Subtraction of the cpm (counts per minute) of [^3H]-PGD2 binding in presence of excess unlabelled PGD2 from that observed in the absence of excess unlabelled PGD2 is defined as specific binding. Active CRTh2 antagonists are able to compete with [^3H]-PGD2 for binding to the CRTh2 receptor and are identified in a decrease in the number of cpm bound. […]
The plates are incubated at room temperature on a shaker for 1 hour, and then harvested (Tomtec Harvester 9600) onto GF/C filter plates using wash buffer (10 mM HEPES-KOH, pH 7.4). […] Plates are then counted using a Packard Top Count instrument, […]
Ki (dissociation constant for the inhibition) values for the CRTh2 antagonists are reported. Ki values are determined using Sigma Plots software, using the Cheng-Prussoff equation. […]

For assay [2], the target named is T1, human CRTh2. In words: CRTH2 cAMP functional assay in CHO.K1-CRTh2 cells. It counts as cell-based. Also noted: expressed in transfected cells; host or cells: CHO.K1 (CHO.K1-CRTh2), whole cells. Particulars: inhibition of PGD2-mediated attenuation of forskolin-induced cAMP accumulation in CHO.K1-CRTh2 cells. On the procedure: where S is the concentration of radioligand and Kd is the dissociation constant. CRTH2 cAMP Functional Assay Protocol
This assay is conducted in CHO.K1-CRTh2 cells. cAMP is generated in the cell by stimulating cells with 5 μM forskolin, an adenylate cyclase activator. PGD2 is added to activate the CRTh2 receptor which results in the attenuation of the forskolin-induced cAMP accumulation. Potential CRTh2 antagonists are tested for their ability to inhibit the PGD2-mediated attenuation of the forskolin-induced cAMP accumulation in CHO.K1-CRTh2 cells.
For each concentration value on the dose-response curve, test compounds are prepared in assay stimulation buffer (HBSS, 5 mM HEPES, 10 μM IBMX±0.1% human serum albumin) containing DMSO (3% vol/vol) and 5 μL/well is added to an assay plate (384 well white optiplate).
CHO.K1-CRTh2 cultured in tissue culture flasks are washed with PBS and harvested with dissociation buffer. Cells are washed with PBS and re-suspended in stimulation buffer to a concentration of 0.4×10^6/mL and added to the assay plate (10 μL/well).
The assay plate is incubated at room temperature on a shaker for 15 minutes.
A mix of agonist (10 nM Prostaglandin D and 5 μM forskolin is prepared in assay stimulation buffer and added to the assay plate (5 μL/well).
In addition, a cAMP standard is serially diluted in assay stimulation buffer and added to separate empty wells on the assay plate (20 μL/well). The cAMP standard allows for the quantification of cAMP generated in CHO.K1-CRTH2 cells.
The assay plate is incubated at room temperature on a shaker for 60 minutes. […]
The assay plate is sealed with Topseal-S™ and incubated in the dark at room temperature on a shaker for 45 minutes. The plate is then counted using a Packard Fusion™ instrument. […]

One may read the Ki as the dissociation constant of the complex between target and ligand, obtained from inhibition or displacement. The IC50 is the concentration at which inhibition is half-maximal.

Take `N#Cc1cn(CC(=O)O)cc1-c1cc(Cl)cc(S(=O)(=O)N2CCN(c3ccccc3F)CC2)c1` [Example 9, (3-{3-Chloro-5-[4-(2-fluoro-phenyl)-piperazine-1-sulfonyl]-phenyl}-4-cyano-pyrrol-1-yl)-acetic acid]: on human CRTh2 [1], the affinity corresponds to a Ki of 49 nM. Half-maximal inhibition against human CRTh2 [2] (IC50) required 26 nM.

For `N#Cc1cn(CC(=O)O)cc1-c1cc(C(F)(F)F)cc(S(=O)(=O)N2CCN(Cc3ccncc3)CC2)c1` [Example 3, {3-Cyano-4-[3-(4-pyridin-4-ylmethyl-piperazine-1-sulfonyl)-5-trifluoromethyl-phenyl]-pyrrol-1-yl}-acetic acid], on human CRTh2 [1], the Ki was determined as 17 nM. The IC50 against human CRTh2 [2] turned out to be 2 nM.

As to `Cc1ccc(CNS(=O)(=O)c2cc(-c3cn(CC(=O)O)cc3C#N)cc(C(F)(F)F)c2)o1` [Example 8, (3-Cyano-4-{3-[(5-methyl-furan-2-ylmethyl)-sulfamoyl]-5-trifluoromethyl-phenyl}-pyrrol-1-yl)-acetic acid], the affinity at human CRTh2 [1] corresponds to a Ki of 2 nM. In addition, half-maximal inhibition against human CRTh2 [2] (IC50) was put at 5 nM.
